Consider 2 compounds from publication PMC5050400 (Current Neuropharmacology, 2016).

Broadly, the EC50 is the concentration needed to bring the measured effect to its halfway point. Read a high EC50 as a less potent agent. By Kd is commonly meant the constant that tells how readily two partners part at equilibrium. High values mean weaker binding, low ones tighter binding.

Test [1] concerns the target T1, α1β3(M286W+Q224W) GABAA receptor (Homo sapiens, UniProt P14867+P28472, M311W/Q249W).
T1 sequence (P28472 26-473 Q249W/M311W): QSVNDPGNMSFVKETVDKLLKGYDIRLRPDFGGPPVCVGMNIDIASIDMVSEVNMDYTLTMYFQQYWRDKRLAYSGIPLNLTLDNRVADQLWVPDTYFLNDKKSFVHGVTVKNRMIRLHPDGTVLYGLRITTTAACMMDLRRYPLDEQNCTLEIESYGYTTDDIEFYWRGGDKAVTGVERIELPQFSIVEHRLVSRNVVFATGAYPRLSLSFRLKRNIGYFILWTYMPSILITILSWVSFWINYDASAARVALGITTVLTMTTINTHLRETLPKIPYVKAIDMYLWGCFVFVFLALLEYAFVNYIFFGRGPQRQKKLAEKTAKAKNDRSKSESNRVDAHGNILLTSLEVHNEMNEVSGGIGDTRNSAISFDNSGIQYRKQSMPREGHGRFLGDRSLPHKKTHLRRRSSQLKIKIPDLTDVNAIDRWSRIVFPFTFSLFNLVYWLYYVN
T1 sequence (P14867 28-456): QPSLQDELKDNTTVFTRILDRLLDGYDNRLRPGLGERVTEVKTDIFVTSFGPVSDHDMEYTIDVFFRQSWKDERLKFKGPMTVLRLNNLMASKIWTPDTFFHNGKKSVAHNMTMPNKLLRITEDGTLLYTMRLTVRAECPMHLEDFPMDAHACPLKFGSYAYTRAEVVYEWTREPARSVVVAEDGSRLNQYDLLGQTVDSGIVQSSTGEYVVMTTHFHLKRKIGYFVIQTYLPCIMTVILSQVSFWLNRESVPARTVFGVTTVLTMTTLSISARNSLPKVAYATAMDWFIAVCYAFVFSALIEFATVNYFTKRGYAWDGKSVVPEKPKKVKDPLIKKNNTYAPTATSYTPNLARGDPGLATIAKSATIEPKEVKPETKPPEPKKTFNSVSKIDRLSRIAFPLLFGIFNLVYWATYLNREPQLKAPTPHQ
Description: cell-based.

The target in the next test is T2, α1β3 GABAA receptor (Homo sapiens, UniProt P14867+P28472).
T2 sequence (P28472 26-473): T1 sequence (P28472 26-473 Q249W/M311W) with W224Q, W286M
T2 sequence (P14867 28-456): T1 sequence (P14867 28-456)
It counts as cell-based. As to conditions: for d / Po,max^est / nH: wild-type α1β3; for d: KO/KC, gating efficacy, MWC fit, n = 5 for propofol, 2 for GABA; for Po,max^est: estimated maximal open probability at saturating agonist; for nH: slope of concentration-response curve.

For test [2], the target named is T3, α1β3(M286W) GABAA receptor (Homo sapiens, UniProt P14867+P28472, M311W).
T3 sequence (P28472 26-473 M311W): T1 sequence (P28472 26-473 Q249W/M311W) with W224Q
T3 sequence (P14867 28-456): T1 sequence (P14867 28-456)
Description: Two-electrode voltage clamp activation of α1β3. It counts as cell-based. To be noted: for Po,max^est / nH / d: α1β3(M286W); for d: KO/KC, MWC fit. (In general: Two-electrode voltage clamp is typically applied to oocytes expressing channels or transporters.)

Test [3] has as its target T4, α1β3(M286W+Y143W) GABAA receptor (Homo sapiens, UniProt P14867+P28472, M311W/Y168W).
T4 sequence (P28472 26-473 Y168W/M311W): T1 sequence (P28472 26-473 Q249W/M311W) with Y143W, W224Q
T4 sequence (P14867 28-456): T1 sequence (P14867 28-456)
In words: Two-electrode voltage clamp activation of α1β3. It counts as cell-based. As to conditions: for Po,max^est / nH / d: α1β3(M286W+Y143W); for d: KO/KC, MWC fit.

Positions count from the first letter of the chain named. Values joined by “and” are separate entries in the source; they are usually repeats but may differ in a detail not shown here. Equal entries are not always repeated. Where two headings read alike, the source gives them in different places.

Take `NCCCC(=O)O` [GABA, γ-aminobutyric acid]: the “Po,max^est” value in test [1] (α1β3(M286W+Q224W)) is 0.87±0.02; at α1β3 GABAA receptor, 0.65±0.04; in test [2], 0.94±0.01; in test [3], 0.96±0.09. Further, the nH was found to be 1.1±0.1 in test [1] (α1β3(M286W+Q224W)), 1.5±0.1 on α1β3 GABAA receptor, 1.8±0.2 in test [2] and 0.8±0.1 in test [3]. Moreover, the d in test [1] (α1β3(M286W+Q224W), KO/KC, MWC fit) is recorded as 0.04±0.004; at α1β3 GABAA receptor, 0.02±0.001; in test [2], 0.005±0.002; in test [3], 0.08±0.05.

For `CC(C)c1cccc(C(C)C)c1O` [Propofol, 2,6-diisopropylphenol], in test [1], the midpoint of the response, the EC50, lay at 69 ± 9 µM; the Kd is 61 ± 14 µM; the “Po,max^est” value amounted to 0.11±0.01; the d was 0.58±0.01. In test [1], this compound had a nH of 1.9±0.1. For the same compound, the EC50 at α1β3 GABAA receptor (EC50, wild-type α1β3, direct activation, mean ± S.E.M., at least 4 cells) is 13 µM and 12.5 µM. Moreover, on α1β3 GABAA receptor, the d is 0.24±0.01, the “Po,max^est” value was 0.50±0.02 and the nH is 1.7±0.3. In addition, in test [2], the EC50 worked out at 14 ± 0.7 µM, the Kd worked out at 6 ± 1.4 µM, the “Po,max^est” value is 0.33±0.04 and the nH is on record as 2.8±0.3. Further, the d in test [2] is given as 0.27±0.01. In test [3], the EC50 is 1.6 ± 0.2 µM, the Kd was found to be 1.4 ± 0.3 µM, the “Po,max^est” value was 0.64±0.02 and the nH was found to be 1.5±0.2. In test [3], this compound gave a d of 0.93±0.01.
